IC50 data for six compounds are collected here from US20250145665A1, “MACROCYCLIC PEPTIDES USEFUL AS MODULATORS OF TNF ALPHA” (Bristol-Myers Squibb Company, priority 2023, published 2025).

Starred links: 1 amine or outer side, 2 acyl side, 3 side chain; linkers in the order of their positions; H or OH if unused. Positions of bridges follow the written chain, without caps; N, C: chain ends. Non-standard residues stand in square brackets, D forms with d. Residues, ends and D or L forms follow the SMILES beside them. *: point of attachment. Bip(4'-(3-HOOC-benzamido)) = N[C@@H](Cc1ccc(-c2ccc(NC(=O)c3cccc(C(=O)O)c3)cc2)cc1)C(=O)O; Bip(4'-NH) = O=C([C@H](Cc1ccc(-c2ccc(N[*:3])cc2)cc1)N[*:1])[*:2]; Bip(4'-COOH) = N[C@@H](Cc1ccc(-c2ccc(C(=O)O)cc2)cc1)C(=O)O; Bip(4'-NHAc) = CC(=O)Nc1ccc(-c2ccc(C[C@H](N)C(=O)O)cc2)cc1; Ala(morpholin-4-yl) = N[C@@H](CN1CCOCC1)C(=O)O; Benzoyl(3-OCH2COOH) = O=C(O)COc1cccc(C(=O)*)c1; Bip = N[C@@H](Cc1ccc(-c2ccccc2)cc1)C(=O)O; Ala(2-furyl) = N[C@@H](Cc1ccco1)C(=O)O; Tiq1c(1S) = O=C(O)[C@H]1NCCc2ccccc21; Val(3-OH) = CC(C)(O)[C@H](N)C(=O)O; 2Pal = N[C@@H](Cc1ccccn1)C(=O)O; Tic = O=C(O)[C@@H]1Cc2ccccc2CN1; Cha = N[C@@H](CC1CCCCC1)C(=O)O; Chg = N[C@H](C(=O)O)C1CCCCC1; Sar = CNCC(=O)O

For this assay, the target named is TNFα (Homo sapiens, UniProt P01375). As to the kind of experiment: TNF-Induced HEK-Blue Assay. Type of assay: cell-based. To be noted: HEK-Blue-CD40L cells, NF-kB-driven secreted alkaline phosphatase reporter; TNFα 0.5 ng/ml; 18 h; read-out: TNF induced HEK-Blue assay IC50 value.
Sequence of TNFα (P01375 77-233 limits assumed): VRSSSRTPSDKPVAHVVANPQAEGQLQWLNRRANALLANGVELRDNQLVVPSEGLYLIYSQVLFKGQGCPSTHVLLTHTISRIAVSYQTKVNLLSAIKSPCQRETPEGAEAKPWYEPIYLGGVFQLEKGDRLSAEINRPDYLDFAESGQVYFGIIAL
One may read the IC50 as the midpoint of a concentration-inhibition curve. Consider `CC(C)C[C@@H]1NC(=O)[C@H](Cc2c[nH]cn2)NC(=O)[C@H](C2CCCCC2)NC(=O)[C@@H]2CCCN2C(=O)[C@H](C(C)C)NC(=O)[C@@H](CCCNC(=N)N)NC(=O)[C@H](CC(=O)O)NC(=O)[C@H](Cc2cnc[nH]2)NC(=O)CN(C)C(=O)[C@H](Cc2ccc(-c3ccc(NC(=O)c4cccc(C(=O)O)c4)cc3)cc2)NC(=O)[C@H](Cc2ccc(-c3ccccc3)cc2)NC(=O)[C@H](CC2CCCCC2)NC(=O)CSC[C@@H](C(=O)NCC(N)=O)NC1=O` [Example 514] ({CH2CO}-[Cha][Bip][Bip(4'-(3-HOOC-benzamido))][Sar]HD[dR]VP[Chg]HLCG-NH2; thioether N-13), for which the IC50 was under 50 nM.

In the case of `CC[C@H](C)[C@@H]1NC(=O)[C@@H](CCCNC(=N)N)NC(=O)[C@H](CC(=O)O)NC(=O)[C@H](Cc2cnc[nH]2)NC(=O)CN(C)C(=O)[C@H](Cc2ccc(-c3ccc(NC(=O)c4cccc(OCC(=O)O)c4)cc3)cc2)NC(=O)[C@H](Cc2ccc(-c3ccccc3)cc2)NC(=O)[C@H](CC2CCCCC2)NC(=O)CSC[C@@H](C(=O)NCC(N)=O)NC(=O)[C@H](CC(C)C)NC(=O)[C@H](Cc2c[nH]cn2)NC(=O)[C@H](C(C)C)NC(=O)[C@@H]2Cc3ccccc3CN2C1=O` [Example 515] ({CH2CO}-[Cha][Bip][Bip(4'-NH)](Benzoyl(3-OCH2COOH))[Sar]HD[dR]I[Tic]VHLCG-NH2; thioether N-13), the IC50 was under 50 nM. For the compound `CC[C@H](C)[C@@H]1NC(=O)[C@@H](CCCNC(=N)N)NC(=O)[C@H](CC(=O)O)NC(=O)[C@H](Cc2cnc[nH]2)NC(=O)CN(C)C(=O)[C@H](Cc2ccc(-c3ccc(NC(=O)c4cccc(OCC(=O)O)c4)cc3)cc2)NC(=O)[C@H](Cc2ccc(-c3ccccc3)cc2)NC(=O)[C@H](CC2CCCCC2)NC(=O)CSC[C@@H](C(=O)NCC(N)=O)NC(=O)[C@H](CC(C)C)NC(=O)[C@H](Cc2c[nH]cn2)NC(=O)[C@H](C(C)C)NC(=O)[C@@H]2c3ccccc3CCN2C1=O` [Example 516] ({CH2CO}-[Cha][Bip][Bip(4'-NH)](Benzoyl(3-OCH2COOH))[Sar]HD[dR]I[Tiq1c(1S)]VHLCG-NH2; thioether N-13), the IC50 is under 50 nM.

Consider `CC(=O)Nc1ccc(-c2ccc(C[C@@H]3NC(=O)[C@H](Cc4ccc(-c5ccccc5)cc4)NC(=O)[C@H](C(C)(C)O)NC(=O)CSC[C@@H](C(=O)NCC(N)=O)NC(=O)[C@H](CC(C)C)NC(=O)[C@H](Cc4cnc[nH]4)NC(=O)[C@H](C(C)C)NC(=O)[C@@H]4CCCN4C(=O)[C@H](C(C)C)NC(=O)[C@@H](CCCNC(=N)N)NC(=O)[C@H](CC(=O)O)NC(=O)[C@H](Cc4ccccn4)NC(=O)CN(C)C3=O)cc2)cc1` [Example 518] ({CH2CO}-[Val(3-OH)][Bip][Bip(4'-NHAc)][Sar][2Pal]D[dR]VPVHLCG-NH2; thioether N-13), for which the IC50 is 50 to 200 nM. The result for `CC(=O)Nc1ccc(-c2ccc(C[C@@H]3NC(=O)[C@H](Cc4ccc(-c5ccccc5)cc4)NC(=O)[C@H](CN4CCOCC4)NC(=O)CSC[C@@H](C(=O)NCC(N)=O)NC(=O)[C@H](CC(C)C)NC(=O)[C@H](Cc4cnc[nH]4)NC(=O)[C@H](C(C)C)NC(=O)[C@@H]4CCCN4C(=O)[C@H](C(C)C)NC(=O)[C@@H](CCCNC(=N)N)NC(=O)[C@H](CC(=O)O)NC(=O)[C@H](Cc4ccco4)NC(=O)CN(C)C3=O)cc2)cc1` [Example 519] ({CH2CO}-[Ala(morpholin-4-yl)][Bip][Bip(4'-NHAc)][Sar][Ala(2-furyl)]D[dR]VPVHLCG-NH2; thioether N-13) reads 50 to 200 nM; that for `CC(=O)Nc1ccc(-c2ccc(C[C@@H]3NC(=O)[C@H](Cc4ccc(-c5ccc(C(=O)O)cc5)cc4)NC(=O)[C@H](CN4CCOCC4)NC(=O)CSC[C@@H](C(=O)NCC(N)=O)NC(=O)[C@H](CC(C)C)NC(=O)[C@H](Cc4cnc[nH]4)NC(=O)[C@H](C(C)C)NC(=O)[C@@H]4CCCN4C(=O)[C@H](C(C)C)NC(=O)[C@@H](CCCNC(=N)N)NC(=O)[C@H](CC(=O)O)NC(=O)[C@H](Cc4ccco4)NC(=O)CN(C)C3=O)cc2)cc1` [Example 520] ({CH2CO}-[Ala(morpholin-4-yl)][Bip(4'-COOH)][Bip(4'-NHAc)][Sar][Ala(2-furyl)]D[dR]VPVHLCG-NH2; thioether N-13), under 50 nM.
